Assays:
Format in all cases: in vivo
[1] = Quantification of BHB and lactate in rat serum after oral administration (LC-MS/MS); details: compared to baseline (internal control), sampling until 180 minutes
Experimental: (§1) The diLaKe ester (formula II) is diluted in physiological saline solution (0.9% NaCl) and administered as a single bolus of 2 mL, per oral dose. The dose of 4500 mg/kg is based on a previous pilot series. Placebo animals receive a single bolus of 2 mL physiological saline solution (0.9% NaCl).
Male Sprague Dawley rats are kept for acclimatization at a constant temperature of 23° C., with a 12 h light-dark cycle and with unlimited access to food and water. All animal handling is in accordance with national guidelines in Denmark and the Guide for the Care and Use of Laboratory Animals^1 and all experiments conformed to Danish Law (Act. No. 1306 of 23 Nov. 2007).
The rats are randomly selected to receive either diLaKe or placebo.
Rats are anaesthetised in an induction chamber with 8% Sevoflurane (Sevorane®, AbbVIE A/S, Copenhagen, Denmark) mixed with oxygen saturated atmospheric air (flow: 2.0 L/min).
Upon achieved anaesthesia, the rats are intubated and connected to a mechanical ventilator (Ugo Basile 7025 rodent ventilator, Comerio, Varese, Italy) with an adjusted flow of 1.0 L/min with 3.5% Sevoflurane. Body temperature is kept at a constant 37° C.±1° C. with a temperature probe (UNO, Zevenaar, Holland). A PTFE coated flexible orogastric tube (Fuchigami, Japan) is placed and the rat is left for stabilization for 15 minutes.
After stabilization a baseline blood sample is collected from the rat tail vein before administration of diLaKe or placebo.
(§2) Following the baseline blood sample, a bolus of diLaKe solution or placebo is administered via the orogastric tube to the animals. […] Serum is collected and stored at −80° C. for further analysis.
The concentration of BHB and lactate will be determined in the blood samples isolated from the rats according to example 3. Rat serum isolated every 15 minutes for a 2 hours are analyzed. The quantification is done on LC-MS/MS using isotopically labeled internal standards (7).
The LaKe ester (formula XXII and XXIII) was diluted in physiological saline solution (0.9% NaCl) and administered as a single bolus of 2 mL, per oral dose. The dose of 4500 mg/kg was based on a previous pilot series (data not shown).
Male Sprague Dawley rats (300-350 g, Taconic, Ry, Denmark) were kept for acclimatization at a constant temperature of 23° C., with a 12 h light-dark cycle and with unlimited access to food and water. […]
Based on own experience and reports by other research groups, a sample size of n=8 was considered adequate to identify a treatment effect. All results are expressed as mean±SD unless otherwise stated. Differences in concentrations were analysed using two-way ANOVA with Bonferroni post hoc correction. […]

[2] = tested on: N-lactoyl-phenylalanine (Lac-Phe); test: Quantification of N-lactoyl-phenylalanine (Lac-Phe) in rat serum after oral administration (LC-MS/MS); details: compared to baseline (internal control)
Experimental: As provided in example 21 with the difference that N-lactoyl-phenylalanine (Lac-Phe) was quantified using LC-MS/MS analyses.
LC-MS/MS analyses were carried out as follows: Forty μL rat plasma was diluted with 100 μL water in a 2 mL tube, added 115 μL methanol (Merck hypergrade) and 420 μL acetonitrile (Merck hypergrade), vortex mixed, incubated for 5 min at room temperature, and then centrifuged at 10,000×g for 5 min. Five hundred microliter supernatant was transferred to a 96-well plate (Eppendorf 1 mL deepwell), evaporated to dryness under a nitrogen gas flow at 30° C., and then reconstituted in 100 μL water with 0.1% formic acid. […]
The sample was introduced to the mass spectrometer through electrospray ionization in the negative mode with a capillary voltage of 2.2 kV and the source and desolvation temperatures were 150 and 500° C., and the nitrogen gas flows were 50 L/h (cone) and 800 L/h (desolvation). The analytes were detected in the multiple reaction monitoring mode with the following transitions (m/z) and cone voltage/collision energies (CV/CE), L-Lac-Phe (quantification ion m/z: 236.2>88.1, CV/CE: 25V/15 eV and qualifier ion m/z: 236.2>147.1, CV/CE: 25V/15 eV). […]

free fatty acids (FFA) = test: Non-esterified free fatty acids in rat serum after oral administration (NEFA-HR (2) kit); details: rats, compared to baseline (internal control), sampling until 180 minutes
Experimental: as §1, §2
The concentration of free-fatty acids (FFA) is determined in the blood samples isolated from the rats according to example 3. […]
Concentrations of non-esterified free fatty acids (NEFA) are measured using a NEFA-HR (2) kit (Wako, Chemicals Gmbh). Absorbance is measured by spectrometry (PHERAstar FS, BMG LABTECH, Ortenberg, Germany). […]
The concentration of free-fatty acids (FFA) was determined in the blood samples isolated from the rats according to example 4. […]
Concentrations of non-esterified free fatty acids (NEFA) were measured using a NEFA-HR (2) kit (Wako, Chemicals Gmbh). Absorbance was measured by spectrometry (PHERAstar FS, BMG LABTECH, Ortenberg, Germany).
The concentration of free-fatty acids (FFA) was determined in the blood samples isolated from the rats according to example 4, with the difference that KeLa (formula XXIV and XXV) was used. […]

Serum levels of BHB ([1]; single rat) | Serum levels of lactate ([1]; single rat) | Serum levels of BHB ([1]; rats) | Serum levels of lactate ([1]; rats) | SMILES | Serum concentration of Lac-Phe ([2]; single rat) | FFA-levels in rat serum (free fatty acids (FFA)) | Serum concentration of Lac-Phe ([2]; rats, sampling until 180 minutes)
increase in serum levels | increase in serum levels | – | – | CC(=O)C(=O)OCC[C@@H](C)OC(=O)C(C)=O [diPyKe, (R)-butane-1,3-diyl bis(2-oxopropanoate)] | increased serum concentration | – | –
– | – | increase in serum levels | increase in serum levels | C[C@H](CCOC(=O)[C@H](C)O)OC(=O)[C@H](C)O [diLaKe, (R)-butane-1,3-diyl (2S,2'S)-bis(2-hydroxypropanoate)] | – | decrease in FFA-levels | increased serum concentration
